# Measured values from ChEMBL document CHEMBL1121784, “Quantitative structure-activity relationships by distance geometry: thyroxine binding site” (J Med Chem, 1981).
# Molecular target: Transthyretin (Homo sapiens) (UniProt P02766)
# Experiment: Binding affinity against prealbumin
row,Structure (SMILES),Delta G [kcal/M]
1,CCc1c(I)c(C)c(Oc2c(I)c(C)c(CCCC(=O)O)c(C)c2I)c(C)c1I,-11.3
2,CCc1cc(C)c(Oc2c(I)c(C)c(CC(=O)O)c(C)c2I)c(C)c1I,-9.7
3,CCc1c(I)c(C)c(Oc2c(I)c(C)c(CC(N)C(=O)O)c(C)c2I)c(C)c1I (stereo in doubt; 2),-10.7
4,CCc1cc(C)c(Oc2c(I)c(C)c(CC(N)C(=O)O)c(C)c2I)c(C)c1C(C)C (stereo unspecified),-7.8
5,CCc1cc(C)c(Oc2c(I)c(C)c(CC(N)C(=O)O)c(C)c2I)c(C)c1C(C)CC (stereo unspecified),-9
6,CCc1cc(C)c(Oc2c(I)c(C)c(CC(N)C(=O)O)c(C)c2I)c(C)c1I (stereo in doubt; 1),-9.2
7,CCc1cc(C)c(Oc2c(C)c(C)c(CC(N)C(=O)O)c(C)c2C)c(C)c1I (stereo unspecified),-7.8
8,CCc1c(I)c(C)c(Oc2c(I)c(C)c(CCN)c(C)c2I)c(C)c1I,-9.7
9,CCc1c(I)c(C)c(Oc2c(I)c(C)c(C(=O)O)c(C)c2I)c(C)c1I,-11.1
10,CCc1c(I)c(C)c(Oc2c(I)c(C)c(CC(=O)O)c(C)c2I)c(C)c1I,-11.9
11,CCCc1c(CC)cc(C)c(Oc2c(I)c(C)c(CC(N)C(=O)O)c(C)c2I)c1C (stereo unspecified),-7.6
12,CCc1cc(C)c(Oc2c(I)c(C)c(CC(N)C(=O)O)c(C)c2I)c(C)c1I (stereo in doubt; 21),-7
13,CCc1cc(C)c(Oc2c(I)c(C)c(CC(N)C(=O)O)c(C)c2I)c(C)c1C(C)(C)C (stereo unspecified),-8
14,CCc1cc(C)c(Oc2c(I)c(C)c(CC(N)C(=O)O)c(C)c2I)c(C)c1 (stereo unspecified),-7.1
15,CCc1cc(C)c(Oc2c(I)c(C)c(CC(N)C(=O)O)c(C)c2I)c(C)c1Cl (stereo unspecified),-7.7
16,CCc1c(I)c(C)c(Oc2c(I)c(C)c(CC(N)C(=O)O)c(C)c2I)c(C)c1I (stereo in doubt; 26),-8.7
17,CCc1cc(C)c(Oc2cc(C)c(CC(N)C(=O)O)c(C)c2I)c(C)c1 (stereo unspecified),-5.2
18,CCc1cc(C)c(Oc2c(I)c(C)c(CC(N)C(=O)O)c(C)c2I)c(C)c1Br (stereo unspecified),-8.2
19,CCc1cc(C)c(Oc2c(I)c(C)c(CC(N)C(=O)O)c(C)c2I)c(C)c1C (stereo unspecified),-7.4
20,CCc1c(I)c(C)c(Oc2cc(C)c(CC(N)C(=O)O)c(C)c2I)c(C)c1I (stereo unspecified),-10
21,CCc1c(Br)c(C)c(Oc2c(I)c(C)c(CC(N)C(=O)O)c(C)c2I)c(C)c1Br (stereo unspecified),-9.2
22,CCc1cc(C)c(Oc2cc(C)c(CC(N)C(=O)O)c(C)c2I)c(C)c1I (stereo unspecified),-7.6
23,CCc1cc(C)c(Oc2c(I)c(C)c(CC(N)C(=O)O)c(C)c2I)c(C)c1CC(C)C (stereo unspecified),-8.4
24,CCc1c(C)c(C)c(Oc2c(I)c(C)c(CC(N)C(=O)O)c(C)c2I)c(C)c1C (stereo unspecified),-6.6
25,CCc1c(I)c(C)c(Oc2c(C)c(C)c(CC(N)C(=O)O)c(C)c2C)c(C)c1I (stereo unspecified),-7.7
26,CCc1c(I)c(C)c(Oc2c(I)c(C)c(CCC(=O)O)c(C)c2I)c(C)c1I,-11.4
